Measurements published in patent publication US20240287138A1, “CYCLIC PEPTIDES FOR INHIBITING TNF RECEPTOR 1 ACTIVITY” (Merck Sharp & Dohme LLC, priority 2023, published 2024).
pIC50, pKd: −log10 of the molar value. Numbered stars: 1 amine (or outer) side, 2 acyl side, 3 side chain; on linkers, the order of the positions; unused ones are H or OH. Bridge positions count the residues as written; N and C are the ends. Square brackets hold non-standard residues; d marks the D form. Peptide text beside a SMILES is read from it. * marks the point of attachment. Trp(βS-Me,7-OMe) = COc1cccc2c([C@H](C)[C@H](N)C(=O)O)c[nH]c12; Ala(1-bicyclo(1.1.1)pentyl) = N[C@@H](CC12CC(C1)C2)C(=O)O; Trp(7-CN) = N#Cc1cccc2c(C[C@H](N)C(=O)O)c[nH]c12; Trp(7-Cl) = N[C@@H](Cc1c[nH]c2c(Cl)cccc12)C(=O)O; Phe(4-CONH2) = NC(=O)c1ccc(C[C@H](N)C(=O)O)cc1; Phe(4-COOH) = N[C@@H](Cc1ccc(C(=O)O)cc1)C(=O)O; Trp(7-aza) = N[C@@H](Cc1c[nH]c2ncccc12)C(=O)O; Pip(5R-OH) = O=C(O)[C@@H]1CC[C@@H](O)CN1; X1 = O=C([C@@H]1CC[C@H](N[*:1])C1)[*:2]; Gly(Nα-CH2CH2CONH2) = NC(=O)CCNCC(=O)O; dPro(4,4-F2) = O=C(O)[C@H]1CC(F)(F)CN1; Pip(4-aza) = O=C(O)[C@@H]1CNCCN1; 4Pal = N[C@@H](Cc1ccncc1)C(=O)O; dHyp = O=C(O)[C@H]1C[C@H](O)CN1; NEtAla = CCN[C@@H](C)C(=O)O; αMeS = C[C@](N)(CO)C(=O)O; Nle = CCCC[C@H](N)C(=O)O; Sar = CNCC(=O)O; X22 = C1CC1C*

Tests used:
[1] = molecular target: T1, human TNFR1 extracellular domain (ECD) protein (Homo sapiens, UniProt P19438); assay: SPR binding affinity to captured human TNFR1 ECD
T1 construct: HRV 3C protease cleavage site (C); 6His (C, cleaved yes); made in house; host or cells: Sf21 insect cells (baculovirus), secreted
T1 sequence (P19438 30-211): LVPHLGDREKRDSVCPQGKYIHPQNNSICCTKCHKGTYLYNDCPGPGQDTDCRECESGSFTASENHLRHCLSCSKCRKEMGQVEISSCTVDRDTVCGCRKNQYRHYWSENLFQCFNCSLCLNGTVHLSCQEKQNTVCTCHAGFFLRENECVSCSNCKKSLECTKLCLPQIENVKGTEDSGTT
Procedure, shortened: (§1)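 SPR kinetics: peptides over captured avi-biotinylated receptor ECDs, TNFR1 for affinity, TNFR2 run in parallel for off-target binding. Running buffer HEPES pH 7.4 with 150 mM NaCl, 3 mM EDTA, 0.05% P20, 2% DMSO; surface regenerated between analytes. Affinity derived from kon/koff.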

human TNFR2 ECD protein = molecular target: T2, human TNFR2 ECD protein (Homo sapiens, UniProt P20333); assay: SPR off-target binding (selectivity) to human TNFR2 ECD
T2 construct: HRV 3C protease cleavage site (C); 6His (C, cleaved yes); made in house; host or cells: Sf21 insect cells (baculovirus), secreted
T2 sequence (P20333 23-257): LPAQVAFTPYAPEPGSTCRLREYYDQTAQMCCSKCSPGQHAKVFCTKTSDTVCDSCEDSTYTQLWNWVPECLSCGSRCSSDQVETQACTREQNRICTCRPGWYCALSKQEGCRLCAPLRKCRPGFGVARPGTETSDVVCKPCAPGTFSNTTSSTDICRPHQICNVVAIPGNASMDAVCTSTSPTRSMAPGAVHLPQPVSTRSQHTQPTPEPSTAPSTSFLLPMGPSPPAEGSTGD
Procedure, shortened: as §1

[2] = molecular target: T3, TNFα-induced NF-κB signal transduction pathway (TNFR1 signaling) in THP-1 cells (Homo sapiens, UniProt P19438); assay: THP-1 Lucia NF-κB reporter cell assay, inhibition of TNFα-induced NF-κB signaling; assay type: cell-based; conditions: THP-1 NF-κB Lucia reporter cells, 10 ng/mL TNFα, 16-18 h, secreted luciferase; read-out: THP-1 IC50
T3 sequence (P19438 30-455): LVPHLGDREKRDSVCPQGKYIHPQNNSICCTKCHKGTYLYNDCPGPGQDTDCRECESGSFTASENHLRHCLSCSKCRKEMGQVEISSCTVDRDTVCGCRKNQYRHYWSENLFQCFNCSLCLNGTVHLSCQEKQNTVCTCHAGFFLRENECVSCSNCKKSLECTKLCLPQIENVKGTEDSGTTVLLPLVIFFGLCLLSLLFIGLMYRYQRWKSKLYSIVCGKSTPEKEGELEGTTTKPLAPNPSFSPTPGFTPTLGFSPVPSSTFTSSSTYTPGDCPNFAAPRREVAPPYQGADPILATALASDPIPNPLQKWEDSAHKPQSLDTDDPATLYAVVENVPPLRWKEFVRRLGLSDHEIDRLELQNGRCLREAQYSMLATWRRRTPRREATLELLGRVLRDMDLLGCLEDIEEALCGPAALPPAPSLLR
Procedure, shortened: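 THP-1 Lucia NF-κB cells, 20k/well, no selection antibiotics; peptide pre-inc 1 h 37 °C; + recombinant human TNFα 10 ng/mL final; o.n.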

Compound	pKd [1]	pKd (human TNFR2 ECD protein)	pIC50 [2]
CCCC[C@@H]1NC(=O)CSC[C@@H](C(N)=O)NC(=O)[C@H]([C@@H](C)c2c[nH]c3c(OC)cccc23)NC(=O)CN(C)C(=O)[C@H](Cc2ccc(O)cc2)NC(=O)[C@H](Cc2ccc(C(=O)O)cc2)NC(=O)[C@](C)(CO)NC(=O)[C@H](Cc2c[nH]c3c(Cl)cccc23)NC(=O)[C@H](Cc2ccncc2)NC(=O)[C@H](CC(N)=O)NC(=O)[C@H]2CCCN2C(=O)[C@H](Cc2c[nH]c3ccccc23)NC(=O)[C@@H]2CC[C@@H](O)CN2C(=O)[C@H](Cc2ccncc2)NC1=O [SEQ ID NO. 203] ({CH2CO}-[Nle][4Pal][Pip(5R-OH)]W[dP]N[4Pal][Trp(7-Cl)][αMeS][Phe(4-COOH)]Y[Sar][Trp(βS-Me,7-OMe)]C-NH2; thioether N-14)	10.00	< 6.00	8.80
CCN1C(=O)[C@H](Cc2c[nH]c3c(Cl)cccc23)NC(=O)[C@H](CO)NC(=O)[C@H](Cc2ccncc2)NC(=O)[C@H](CC23CC(C2)C3)NC(=O)CSC[C@@H](C(N)=O)NC(=O)[C@H](Cc2c[nH]c3ncccc23)NC(=O)CN(C)C(=O)[C@H](Cc2ccc(O)cc2)NC(=O)[C@H](Cc2ccc(C(=O)O)cc2)NC(=O)[C@](C)(CO)NC(=O)[C@H](Cc2c[nH]c3ncccc23)NC(=O)[C@H](Cc2ccc(C(=O)O)cc2)NC(=O)[C@H](CC(N)=O)NC(=O)[C@@H]1C [SEQ ID NO. 232] ({CH2CO}-[Ala(1-bicyclo(1.1.1)pentyl)][4Pal]S[Trp(7-Cl)][NEtAla]N[Phe(4-COOH)][Trp(7-aza)][αMeS][Phe(4-COOH)]Y[Sar][Trp(7-aza)]C-NH2; thioether N-14)	9.15	< 6.00	8.20
COc1cccc2c([C@H](C)[C@@H]3NC(=O)CN(C)C(=O)[C@H](Cc4ccc(C(=O)O)cc4)NC(=O)[C@H](Cc4ccc(C(N)=O)cc4)NC(=O)[C@](C)(CO)NC(=O)[C@H](Cc4c[nH]c5c(C#N)cccc45)NC(=O)[C@H](Cc4ccc(C(=O)O)cc4)NC(=O)[C@H](CC(N)=O)NC(=O)[C@H]4C[C@H](O)CN4C(=O)[C@H](Cc4c[nH]c5ncccc45)NC(=O)[C@@H]4CC[C@@H](O)CN4C(=O)[C@H](Cc4ccncc4)NC(=O)[C@H](COCC4CC4)NC(=O)[C@@H]4CC[C@@H](C4)NC3=O)c[nH]c12 [SEQ ID NO. 149] (cyclo([4Pal][Pip(5R-OH)][Trp(7-aza)][dHyp]N[Phe(4-COOH)][Trp(7-CN)][αMeS][Phe(4-CONH2)][Phe(4-COOH)][Sar][Trp(βS-Me,7-OMe)][X1]S(X22)))	9.74	< 6.00	8.89
CCCC[C@@H]1NC(=O)[C@@H]2CC[C@@H](C2)NC(=O)[C@H]([C@@H](C)c2c[nH]c3c(OC)cccc23)NC(=O)CN(C)C(=O)[C@H](Cc2ccc(O)cc2)NC(=O)[C@H](Cc2ccc(C(=O)O)cc2)NC(=O)[C@](C)(CO)NC(=O)[C@H](Cc2c[nH]c3c(Cl)cccc23)NC(=O)[C@H](Cc2ccncc2)NC(=O)[C@H](CC(N)=O)NC(=O)[C@H]2CC(F)(F)CN2C(=O)[C@H](Cc2c[nH]c3ccccc23)NC(=O)[C@@H]2CNCCN2C(=O)[C@H](Cc2ccncc2)NC1=O [SEQ ID NO. 266] (cyclo([4Pal][Trp(7-Cl)][αMeS][Phe(4-COOH)]Y[Sar][Trp(βS-Me,7-OMe)][X1][Nle][4Pal][Pip(4-aza)]W[dPro(4,4-F2)]N))	10.22	< 6.00	9.05
CCCC[C@@H]1NC(=O)[C@@H]2CC[C@@H](C2)NC(=O)[C@H]([C@@H](C)c2c[nH]c3c(OC)cccc23)NC(=O)CN(C)C(=O)[C@H](Cc2ccc(C(=O)O)cc2)NC(=O)[C@H](Cc2ccc(C(N)=O)cc2)NC(=O)[C@](C)(CO)NC(=O)[C@H](Cc2c[nH]c3c(C#N)cccc23)NC(=O)[C@H](Cc2ccc(C(=O)O)cc2)NC(=O)[C@H](CC(N)=O)NC(=O)CN(CCC(N)=O)C(=O)[C@H](Cc2c[nH]c3ccccc23)NC(=O)[C@@H]2CC[C@@H](O)CN2C(=O)[C@H](Cc2ccncc2)NC1=O [SEQ ID NO. 130] (cyclo([4Pal][Pip(5R-OH)]W[Gly(Nα-CH2CH2CONH2)]N[Phe(4-COOH)][Trp(7-CN)][αMeS][Phe(4-CONH2)][Phe(4-COOH)][Sar][Trp(βS-Me,7-OMe)][X1][Nle]))	10.22	< 6.00	9.15
